ChEMBL document CHEMBL1151633, “Biological Activities of Asterosaponins With Special Reference to Structure-Activity Relationships” (J Nat Prod, 1984)
In brackets after ≈: the same amount, converted by molar mass. Activity calls are given as the source filed them. No cut-off for these calls is given here.

How the values were obtained:
Patiria pectinifera [1] = experiment: Inhibition of actin polymerization in starfish during embryogenesis
[2] = Toxicity in sea urchin embryo assessed as inhibition of embryo development before morula stage after 24 hrs by microscopy; conditions: hemicentrotus pulcherrimus
[3] = tested on: Hemicentrotus pulcherrimus; experiment: Inhibition of first cleavage in sea urchin embryo after 1.5 hrs by microscopy; type: functional
[4] = Toxicity in rabbit RBC assessed as hemolytic index; type: cell-based, Oryctolagus cuniculus; conditions: erythrocyte
Patiria pectinifera [5] = experiment: Effect on starfish embryo development assessed as abnormal embryo induction at bastula or gastula stage after 24 hrs by lactoorcein staining; type: functional
Patiria pectinifera [6] = experiment: Effect on starfish embryo development assessed as incomplete cytokinesis by lactoorcein staining; type: functional
Patiria pectinifera [7] = experiment: Effect on starfish embryo development assessed as occurrence of multinuclei by lactoorcein staining; type: functional

| Compound | Activity (Patiria pectinifera [1]) | LD99 [2] | ED50 [3] | HI [4] | ED50 (Patiria pectinifera [5]) | Activity (Patiria pectinifera [6]) | Activity (Patiria pectinifera [7]) |
| --- | --- | --- | --- | --- | --- | --- | --- |
| CC(C)CC(=O)C[C@@](C)(O)[C@H]1CC[C@H]2[C@@H]3C[C@H](OC4O[C@H](C)[C@@H](O)[C@H](OC5OC[C@@H](OC6O[C@H](CO)[C@H](O)[C@H](O)[C@H]6OC6O[C@H](C)[C@H](O)[C@H](O)[C@H]6O)[C@H](O)[C@H]5OC5O[C@H](C)[C@@H](O)[C@H](O)[C@H]5O)[C@H]4O)[C@H]4C[C@@H](OS(=O)(=O)[O-])CC[C@]4(C)C3=CC[C@@]21C.[Na+] (stereo not given in full) | Active | 5 µg/mL | 10 µg/mL | 22000 | 100 µg/mL |  |  |
| CC(=O)[C@H]1CC[C@H]2[C@@H]3C[C@H](OC4O[C@H](C)[C@@H](O)[C@H](OC5OC[C@@H](OC6O[C@H](CO)[C@H](O)[C@H](O)[C@H]6OC6O[C@H](C)[C@H](O)[C@H](O)[C@H]6O)[C@H](O)[C@H]5OC5O[C@H](C)[C@@H](O)[C@H](O)[C@H]5O)[C@H]4O)[C@H]4C[C@@H](OS(=O)(=O)[O-])CC[C@]4(C)C3=CC[C@]12C.[Na+] (stereo not given in full) | Active | > 50 µg/mL | > 50 µg/mL | < 2270 | 100 µg/mL |  |  |
| CC(C)C(C)C(=O)C[C@@](C)(O)[C@H]1CC[C@H]2[C@@H]3C[C@H](OC4O[C@H](C)[C@@H](O)[C@H](OC5OC[C@@H](OC6O[C@H](CO)[C@H](O)[C@H](O)[C@H]6OC6O[C@H](C)[C@H](O)[C@H](O)[C@H]6O)[C@H](O)[C@H]5OC5O[C@H](C)[C@@H](O)[C@H](O)[C@H]5O)[C@H]4O)[C@H]4C[C@@H](OS(=O)(=O)[O-])CC[C@]4(C)C3=CC[C@@]21C.[Na+] (stereo not given in full) | Active | 2 µg/mL | 5 µg/mL | 31400 | 50 µg/mL | Active | Active |
| CC(C)=CC(=O)C[C@@](C)(O)[C@H]1CC[C@H]2[C@@H]3C[C@H](OC4O[C@H](C)[C@@H](O)[C@H](OC5OC[C@@H](OC6O[C@H](C)[C@@H](O)[C@H](O)[C@H]6OC6O[C@H](C)[C@H](O)[C@H](O)[C@H]6O)[C@H](O)[C@H]5OC5O[C@H](C)[C@@H](O)[C@H](O)[C@H]5O)[C@H]4O)[C@H]4C[C@@H](O)CC[C@]4(C)C3=CC[C@@]21C (stereo not given in full) | Active | 10 µg/mL | 10 µg/mL (≈ 8.72 µM) |  | 100 µg/mL (≈ 87.2 µM) |  |  |
| CC(C)CC(=O)C[C@@](C)(O)[C@H]1CC[C@H]2[C@@H]3C[C@H](OC4O[C@H](C)[C@@H](O)[C@H](OC5OC[C@@H](OC6O[C@H](CO)[C@@H](O)[C@H](O)[C@H]6OC6O[C@H](C)[C@H](O)[C@H](O)[C@H]6O)[C@H](O)[C@H]5OC5O[C@H](C)[C@@H](O)[C@H](O)[C@H]5O)[C@H]4O)[C@H]4C[C@@H](OS(=O)(=O)[O-])CC[C@]4(C)C3=CC[C@@]21C.[Na+] (stereo not given in full) | Active | 2 µg/mL | 15 µg/mL |  | 200 µg/mL |  |  |
| CC(C)=CC(=O)C[C@@](C)(O)[C@H]1CC[C@H]2[C@@H]3C[C@H](OC4O[C@H](C)[C@@H](O)[C@H](OC5OC[C@@H](OC6O[C@H](CO)[C@H](O)[C@H](O)[C@H]6OC6O[C@H](C)[C@H](O)[C@H](O)[C@H]6O)[C@H](O)[C@H]5OC5O[C@H](C)[C@@H](O)[C@H](O)[C@H]5O)[C@H]4O)[C@H]4C[C@@H](OS(=O)(=O)[O-])CC[C@]4(C)C3=CC[C@@]21C.[Na+] (stereo not given in full) | Active | 5 µg/mL | 15 µg/mL |  | 100 µg/mL |  |  |
| CC(C)CC(=O)C[C@@](C)(O)[C@H]1CC[C@H]2[C@@H]3C[C@H](OC4O[C@H](C)[C@@H](O)[C@H](OC5OC[C@@H](OC6O[C@H](C)[C@@H](O)[C@H](O)[C@H]6OC6O[C@H](C)[C@H](O)[C@H](O)[C@H]6O)[C@H](O)[C@H]5OC5O[C@H](C)[C@@H](O)[C@H](O)[C@H]5O)[C@H]4O)[C@H]4C[C@@H](OS(=O)(=O)O)CC[C@]4(C)C3=CC[C@@]21C.N (stereo not given in full) | Active | 5 µg/mL | 15 µg/mL |  | 200 µg/mL |  |  |
| CC(C)CC(=O)C[C@@](C)(O)[C@H]1CC[C@H]2[C@@H]3C[C@H](OC4O[C@H](CO)[C@@H](O)[C@H](OC5O[C@H](C)[C@@H](OC6O[C@H](C)[C@@H](O)[C@H](O)[C@H]6OC6O[C@H](C)[C@H](O)[C@H](O)[C@H]6O)[C@H](O)[C@H]5OC5O[C@H](C)[C@@H](O)[C@H](O)[C@H]5O)[C@H]4O)[C@H]4C[C@@H](OS(=O)(=O)[O-])CC[C@]4(C)C3=CC[C@@]21C.[Na+] (stereo not given in full) | Active | 5 µg/mL | 5 µg/mL |  | 50 µg/mL |  |  |
| CC(C)C(C)C(=O)C[C@@](C)(O)[C@H]1CC[C@H]2[C@@H]3C[C@H](OC4O[C@H](C)[C@@H](O)[C@H](OC5OC[C@@H](OC6O[C@H](CO)[C@H](O)[C@H](O)[C@H]6OC6O[C@H](C)[C@H](O)[C@H](OC7O[C@H](C)[C@H](O)[C@H](O)[C@H]7O)[C@H]6O)[C@H](O)[C@H]5OC5O[C@H](C)[C@@H](O)[C@H](O)[C@H]5O)[C@H]4O)[C@H]4C[C@@H](OS(=O)(=O)[O-])CC[C@]4(C)C3=CC[C@@]21C.[Na+] (stereo not given in full) | Active | 2 µg/mL | 5 µg/mL | 21500 | 100 µg/mL |  |  |
| CC(C)CC(=O)C[C@@](C)(O)[C@H]1CC[C@H]2[C@@H]3C[C@H](OC4O[C@H](C)[C@@H](O)[C@H](OC5OC[C@@H](OC6O[C@H](CO)[C@H](O)[C@H](O)[C@H]6OC6O[C@H](C)[C@H](O)[C@H](OC7O[C@H](CO)[C@H](O)[C@H](O)[C@H]7O)[C@H]6O)[C@H](O)[C@H]5OC5O[C@H](C)[C@@H](O)[C@H](O)[C@H]5O)[C@H]4O)[C@H]4C[C@@H](OS(=O)(=O)[O-])CC[C@]4(C)C3=CC[C@@]21C.[Na+] (stereo not given in full) | Active | 10 µg/mL | 30 µg/mL | 5100 | 200 µg/mL |  |  |
| CC(C)CC(=O)C[C@@](C)(O)[C@H]1CC[C@H]2[C@@H]3C[C@H](OC4O[C@H](C)[C@@H](O)[C@H](OC5OC[C@@H](OC6O[C@H](C)[C@@H](O)[C@H](O)[C@H]6OC6O[C@H](C)[C@H](O)[C@H](OC7O[C@H](C)[C@H](O)[C@H](O)[C@H]7O)[C@H]6O)[C@H](O)[C@H]5OC5O[C@H](C)[C@@H](O)[C@H](O)[C@H]5O)[C@H]4O)[C@H]4C[C@@H](O)CC[C@]4(C)C3=CC[C@@]21C (stereo not given in full) | Active | 10 µg/mL | 50 µg/mL (≈ 38.6 µM) | < 2550 | 100 µg/mL (≈ 77.2 µM) |  |  |
| CC(C)CC(=O)C[C@@](C)(O)[C@H]1CC[C@H]2[C@@H]3C[C@H](O[C@@H]4O[C@H](C)C(=O)[C@H](OC5O[C@H](C)[C@@H](OC6O[C@H](C)[C@H](O)[C@H](O)[C@H]6OC6O[C@H](C)[C@H](O)[C@H](O)[C@H]6O)[C@H](O)[C@H]5OC5O[C@H](C)[C@@H](O)[C@H](O)[C@H]5O)[C@H]4O)[C@H]4C[C@@H](OS(=O)(=O)[O-])CC[C@]4(C)C3=CC[C@@]21C.[Na+] (stereo not given in full) | Active | 5 µg/mL | 15 µg/mL | 17700 | 200 µg/mL |  |  |
| CC(C)C(C)C(=O)C[C@@](C)(O)[C@H]1CC[C@H]2[C@@H]3C[C@H](OC4O[C@H](C)[C@@H](O)[C@H](OC5OC[C@@H](OC6O[C@H](C)[C@@H](O)[C@H](O)[C@H]6OC6O[C@H](C)[C@H](O)[C@H](OC7O[C@H](C)[C@H](O)[C@H](O)[C@H]7O)[C@H]6O)[C@H](O)[C@H]5OC5O[C@H](C)[C@@H](O)[C@H](O)[C@H]5O)[C@H]4O)[C@H]4C[C@@H](OS(=O)(=O)[O-])CC[C@]4(C)C3=CC[C@@]21C.[Na+] (stereo not given in full) | Active | 5 µg/mL | 10 µg/mL | 10700 | 200 µg/mL |  |  |
| CC(C)CC(=O)C[C@@](C)(O)[C@H]1CC[C@H]2[C@@H]3C[C@H](OC4O[C@H](C)[C@@H](O)[C@H](OC5OC[C@@H](OC6O[C@H](CO)[C@H](O)[C@H](O)[C@H]6OC6O[C@H](C)[C@H](O)[C@H](OC7O[C@H](C)[C@H](O)[C@H](O)[C@H]7O)[C@H]6O)[C@H](O)[C@H]5OC5O[C@H](C)[C@@H](O)[C@H](O)[C@H]5O)[C@H]4O)[C@H]4C[C@@H](OS(=O)(=O)[O-])CC[C@]4(C)C3=CC[C@@]21C.[Na+] (stereo not given in full) | Active | 5 µg/mL | 15 µg/mL | 11400 | 200 µg/mL |  |  |
| CC(C)CC(=O)C[C@@](C)(O)[C@H]1CC[C@H]2[C@@H]3C[C@H](OC4O[C@H](C)[C@@H](O)[C@H](OC5OC[C@@H](OC6O[C@H](C)[C@@H](O)[C@H](O)[C@H]6OC6O[C@H](C)[C@H](O)[C@H](OC7O[C@H](C)[C@H](O)[C@H](O)[C@H]7O)[C@H]6O)[C@H](O)[C@H]5OC5O[C@H](C)[C@@H](O)[C@H](O)[C@H]5O)[C@H]4O)[C@H]4C[C@@H](OS(=O)(=O)[O-])CC[C@]4(C)C3=CC[C@@]21C.[Na+] (stereo not given in full) | Active | 10 µg/mL | 15 µg/mL |  | 200 µg/mL |  |  |
| CC(C)=CC(=O)C[C@@](C)(O)[C@H]1CC[C@H]2[C@@H]3C[C@H](OC4O[C@H](CO)[C@@H](O)[C@H](OC5O[C@H](C)[C@@H](OC6O[C@H](C)[C@@H](O)[C@H](O)[C@H]6OC6O[C@H](C)[C@H](O)[C@H](O)[C@H]6O)[C@H](O)[C@H]5OC5O[C@H](C)[C@@H](O)[C@H](O)[C@H]5O)[C@H]4O)[C@H]4C[C@@H](OS(=O)(=O)[O-])CC[C@]4(C)C3=CC[C@@]21C.[Na+] (stereo not given in full) | Active | 5 µg/mL | 10 µg/mL |  | 50 µg/mL |  |  |
| CC(C)=CC(=O)C[C@@](C)(O)[C@H]1CC[C@H]2[C@@H]3C[C@H](OC4O[C@H](C)[C@@H](O)[C@H](OC5OC[C@@H](OC6O[C@H](C)[C@@H](O)[C@H](O)[C@H]6OC6O[C@H](C)[C@H](O)[C@H](O)[C@H]6O)[C@H](O)[C@H]5OC5O[C@H](C)[C@@H](O)[C@H](O)[C@H]5O)[C@H]4O)[C@H]4C[C@@H](OS(=O)(=O)[O-])CC[C@]4(C)C3=CC[C@@]21C.[Na+] (stereo not given in full) | Active | 50 µg/mL | 50 µg/mL | < 2420 | 200 µg/mL |  |  |
